The values that follow come from ChEMBL document CHEMBL1157712, “Hit to lead account of the discovery of bisbenzamide and related ureidobenzamide inhibitors of Rho kinase” (J Med Chem, 2010).

Converted amounts (≈) assume the structure as drawn. Bounds are passed on as bounds.

Data set [1] in a line: (§1) Permeability from apical to basolateral side in human Caco-2 cells. As to conditions: Caco-2, read-out: permeability. Type of data set: ADME, cell-based. (In general: Passage across Caco-2 layers is used to estimate intestinal permeability.)
Data set [2] is described as follows: Permeability from basolateral to apical side in human Caco-2 cells. Type of data set: ADME, cell-based. The note with it: read-out: permeability.
Data set [3] is described as follows: Metabolic stability in human liver microsomes assessed as half life. Type of data set: ADME, Microsome.
In data set [4] the target is T1, Cytochrome P450 1A2 (Homo sapiens, UniProt P05177).
T1 sequence (P05177 whole entry): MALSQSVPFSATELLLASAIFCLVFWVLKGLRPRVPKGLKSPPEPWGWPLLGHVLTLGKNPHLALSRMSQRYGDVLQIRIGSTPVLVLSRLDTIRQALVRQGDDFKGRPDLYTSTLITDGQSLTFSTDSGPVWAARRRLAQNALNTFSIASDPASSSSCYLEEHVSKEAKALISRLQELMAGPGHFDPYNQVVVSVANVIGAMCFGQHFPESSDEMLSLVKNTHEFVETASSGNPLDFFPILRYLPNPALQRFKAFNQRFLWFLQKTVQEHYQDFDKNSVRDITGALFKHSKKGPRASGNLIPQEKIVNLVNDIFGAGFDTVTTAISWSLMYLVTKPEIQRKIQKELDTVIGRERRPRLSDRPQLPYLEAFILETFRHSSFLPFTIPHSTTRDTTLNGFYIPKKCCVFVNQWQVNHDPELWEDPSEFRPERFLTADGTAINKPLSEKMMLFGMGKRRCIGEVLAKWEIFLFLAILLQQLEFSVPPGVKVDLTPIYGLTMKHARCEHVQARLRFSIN
In words: Inhibition of human CYP1A2 by fluorescence assay. It counts as ADME.

Data set [5] has as its target T2, Cytochrome P450 2C9 (Homo sapiens, UniProt P11712). In words: Inhibition of human CYP2C9 by fluorescence assay. Type of data set: ADME.
For the next data set, the target named is Cytochrome P450 2C19 (Homo sapiens, UniProt P33261). The experiment in a line: Inhibition of human CYP2C19 by fluorescence assay. Type of data set: ADME.
Data set [6] addresses T3, Cytochrome P450 2D6 (Homo sapiens, UniProt P10635). In words: Inhibition of human CYP2D6 by fluorescence assay. Type of data set: ADME.
The next data set is filed under the species Rattus norvegicus. The experiment in a line: Induction of relaxation activity of phenylephrine-induced Sprague-Dawley rat aortic ring contraction. It counts as functional. As to conditions: Aorta.
Data set [7] has as its target Rho-associated protein kinase 1 (Homo sapiens, UniProt Q13464). In words: Inhibition of human ROCK1 by homogenous luciferase assay.
A short description of data set [8]: Solubility at pH 4.5. As to conditions: buffer. It counts as physicochemical.
Data set [9] can be described thus: Solubility at pH 7.4. Type of data set: physicochemical. As to conditions: buffer.
The target in data set [10] is T4, Cytochrome P450 3A4 (Homo sapiens, UniProt P08684). In words: Inhibition of human CYP3A4 using BFC substrate by fluorescence assay. Type of data set: ADME.
For data set [11], the target named is T4, Cytochrome P450 3A4. In words: Inhibition of human CYP3A4 using BQ substrate by fluorescence assay. It counts as ADME.
Data set [12] concerns the target T5, Rho-associated protein kinase 2 (Homo sapiens, UniProt O75116).
Description: Inhibition of human ROCK2 by homogenous luciferase assay
A short description of the next data set: in vitro. As to conditions: human, Caco-2.
Data set [13] concerns the target T6, Protein kinase C epsilon type (Homo sapiens, UniProt Q02156).
T6 sequence (Q02156 whole entry): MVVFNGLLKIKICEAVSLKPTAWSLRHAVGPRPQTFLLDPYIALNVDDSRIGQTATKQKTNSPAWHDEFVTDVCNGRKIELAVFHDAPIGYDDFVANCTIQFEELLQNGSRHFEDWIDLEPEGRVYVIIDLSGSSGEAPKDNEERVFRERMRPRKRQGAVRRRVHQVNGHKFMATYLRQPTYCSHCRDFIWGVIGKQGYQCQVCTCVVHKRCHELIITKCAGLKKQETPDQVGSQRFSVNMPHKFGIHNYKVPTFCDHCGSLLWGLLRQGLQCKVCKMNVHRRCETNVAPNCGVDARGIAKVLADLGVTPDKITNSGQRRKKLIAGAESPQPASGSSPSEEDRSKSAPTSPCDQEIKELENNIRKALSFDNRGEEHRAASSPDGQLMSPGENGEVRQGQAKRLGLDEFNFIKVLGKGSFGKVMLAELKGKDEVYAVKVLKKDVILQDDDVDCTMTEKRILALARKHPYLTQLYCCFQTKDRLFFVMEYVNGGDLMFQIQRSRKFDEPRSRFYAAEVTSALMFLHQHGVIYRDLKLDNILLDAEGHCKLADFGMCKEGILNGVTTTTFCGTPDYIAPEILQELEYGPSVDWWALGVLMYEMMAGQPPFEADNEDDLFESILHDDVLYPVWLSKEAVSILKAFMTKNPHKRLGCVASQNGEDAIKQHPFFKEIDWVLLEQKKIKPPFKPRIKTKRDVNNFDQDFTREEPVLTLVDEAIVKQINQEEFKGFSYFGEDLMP
In words: Inhibition of PKCepsilon.

Data set [14] can be described thus: Membrane permeability by PAMPA assay. It counts as ADME. As to conditions: read-out: permeability.
Data set [15] concerns the target T1, Cytochrome P450 1A2. In words: Inhibition of human CYP1A2 by LCMS/MS assay. It counts as ADME.
The target of data set [16] is T2, Cytochrome P450 2C9. The experiment in a line: Inhibition of human CYP2C9 by LCMS/MS assay. Type of data set: ADME.
The target of data set [17] is T3, Cytochrome P450 2D6. The experiment in a line: Inhibition of human CYP2D6 by LCMS/MS assay. Type of data set: ADME.
Data set [18] has as its target T4, Cytochrome P450 3A4. The experiment in a line: Inhibition of human CYP3A4 by LCMS/MS assay. Type of data set: ADME.
Data set [19] concerns the target Serine/threonine-protein kinase N2 (Homo sapiens, UniProt Q16513).
Data set [20] addresses Serine/threonine-protein kinase MRCK beta (Homo sapiens) (UniProt Q9Y5S2). In words: Inhibition of CDC42BPB.
The next data set concerns ROCK1 (Homo sapiens). The experiment in a line: Inhibition of ROCK1.
The target of data set [21] is T5, Rho-associated protein kinase 2. The experiment in a line: Inhibition of human ROCK2 by IMAP assay.
A further data set relates to Caco-2. The description is as §1. Type of data set: ADME, cell-based. The note with it: caco-2, BLD = below limit of detection.
A short description of data set [22]: Bioavailability in rat. Type of data set: ADME, organism-based. The note with it: in vivo.

T2 sequence (P11712 whole entry): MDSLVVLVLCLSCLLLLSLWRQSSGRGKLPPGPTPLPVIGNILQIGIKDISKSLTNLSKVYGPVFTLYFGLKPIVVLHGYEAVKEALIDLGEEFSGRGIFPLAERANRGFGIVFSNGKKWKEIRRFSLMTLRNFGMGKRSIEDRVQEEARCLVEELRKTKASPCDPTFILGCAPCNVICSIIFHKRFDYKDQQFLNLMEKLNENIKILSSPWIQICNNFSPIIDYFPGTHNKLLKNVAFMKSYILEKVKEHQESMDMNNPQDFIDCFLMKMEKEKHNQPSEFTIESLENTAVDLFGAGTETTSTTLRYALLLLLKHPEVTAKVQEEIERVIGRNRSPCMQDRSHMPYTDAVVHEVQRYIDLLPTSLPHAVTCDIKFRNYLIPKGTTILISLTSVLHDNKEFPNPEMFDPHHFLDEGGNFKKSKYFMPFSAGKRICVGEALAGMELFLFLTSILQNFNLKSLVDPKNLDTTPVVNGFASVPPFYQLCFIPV
T3 sequence (P10635 whole entry): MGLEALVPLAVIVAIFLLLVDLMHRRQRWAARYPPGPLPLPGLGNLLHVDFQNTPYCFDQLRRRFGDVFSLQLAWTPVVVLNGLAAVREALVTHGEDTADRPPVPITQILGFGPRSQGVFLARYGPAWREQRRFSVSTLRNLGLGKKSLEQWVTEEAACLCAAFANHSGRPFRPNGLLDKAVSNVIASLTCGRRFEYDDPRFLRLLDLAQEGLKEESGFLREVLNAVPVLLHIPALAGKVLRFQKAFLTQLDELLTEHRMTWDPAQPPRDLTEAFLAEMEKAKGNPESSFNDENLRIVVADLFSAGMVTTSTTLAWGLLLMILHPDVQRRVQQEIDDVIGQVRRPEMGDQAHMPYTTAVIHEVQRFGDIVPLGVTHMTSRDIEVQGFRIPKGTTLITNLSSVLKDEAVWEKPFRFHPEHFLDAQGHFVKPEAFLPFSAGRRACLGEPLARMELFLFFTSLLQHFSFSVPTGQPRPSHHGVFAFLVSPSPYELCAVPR
T5 sequence (O75116 whole entry): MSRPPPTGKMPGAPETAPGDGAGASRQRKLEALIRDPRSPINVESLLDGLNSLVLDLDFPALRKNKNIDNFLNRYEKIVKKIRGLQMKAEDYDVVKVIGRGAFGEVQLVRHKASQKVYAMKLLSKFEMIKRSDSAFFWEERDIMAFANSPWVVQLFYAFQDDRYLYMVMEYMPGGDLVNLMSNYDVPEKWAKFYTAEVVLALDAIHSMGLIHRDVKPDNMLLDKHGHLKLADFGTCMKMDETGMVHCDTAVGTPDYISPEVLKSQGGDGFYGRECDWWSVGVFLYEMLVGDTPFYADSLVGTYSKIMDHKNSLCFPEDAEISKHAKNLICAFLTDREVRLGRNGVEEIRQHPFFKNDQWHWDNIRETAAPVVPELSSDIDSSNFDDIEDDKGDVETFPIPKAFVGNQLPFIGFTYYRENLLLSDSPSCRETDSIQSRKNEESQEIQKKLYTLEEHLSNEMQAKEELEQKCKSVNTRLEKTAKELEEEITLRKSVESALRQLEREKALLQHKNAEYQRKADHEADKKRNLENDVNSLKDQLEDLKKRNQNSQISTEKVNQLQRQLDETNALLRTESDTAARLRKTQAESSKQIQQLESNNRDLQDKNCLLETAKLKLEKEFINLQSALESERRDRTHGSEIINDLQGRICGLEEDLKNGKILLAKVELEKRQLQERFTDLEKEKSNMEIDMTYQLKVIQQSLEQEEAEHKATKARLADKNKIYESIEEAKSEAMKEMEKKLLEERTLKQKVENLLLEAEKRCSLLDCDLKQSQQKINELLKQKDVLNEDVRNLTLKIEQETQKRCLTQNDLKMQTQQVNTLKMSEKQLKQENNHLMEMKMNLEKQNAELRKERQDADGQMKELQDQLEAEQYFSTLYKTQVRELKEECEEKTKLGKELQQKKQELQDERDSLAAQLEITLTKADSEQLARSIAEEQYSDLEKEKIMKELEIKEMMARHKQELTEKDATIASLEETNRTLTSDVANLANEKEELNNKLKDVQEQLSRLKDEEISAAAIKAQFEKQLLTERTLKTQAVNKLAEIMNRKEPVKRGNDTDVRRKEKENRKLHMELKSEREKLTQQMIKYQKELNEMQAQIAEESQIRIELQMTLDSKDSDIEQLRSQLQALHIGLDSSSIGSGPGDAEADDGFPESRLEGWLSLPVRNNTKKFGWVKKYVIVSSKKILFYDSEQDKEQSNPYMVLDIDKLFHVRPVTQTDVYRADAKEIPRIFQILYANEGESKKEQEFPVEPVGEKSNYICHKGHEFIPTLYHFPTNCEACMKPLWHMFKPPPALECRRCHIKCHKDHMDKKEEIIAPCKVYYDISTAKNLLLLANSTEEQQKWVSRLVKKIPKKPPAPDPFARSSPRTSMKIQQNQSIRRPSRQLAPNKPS
Chain of Serine/threonine-protein kinase MRCK beta (Homo sapiens) (Q9Y5S2 whole entry, looked up): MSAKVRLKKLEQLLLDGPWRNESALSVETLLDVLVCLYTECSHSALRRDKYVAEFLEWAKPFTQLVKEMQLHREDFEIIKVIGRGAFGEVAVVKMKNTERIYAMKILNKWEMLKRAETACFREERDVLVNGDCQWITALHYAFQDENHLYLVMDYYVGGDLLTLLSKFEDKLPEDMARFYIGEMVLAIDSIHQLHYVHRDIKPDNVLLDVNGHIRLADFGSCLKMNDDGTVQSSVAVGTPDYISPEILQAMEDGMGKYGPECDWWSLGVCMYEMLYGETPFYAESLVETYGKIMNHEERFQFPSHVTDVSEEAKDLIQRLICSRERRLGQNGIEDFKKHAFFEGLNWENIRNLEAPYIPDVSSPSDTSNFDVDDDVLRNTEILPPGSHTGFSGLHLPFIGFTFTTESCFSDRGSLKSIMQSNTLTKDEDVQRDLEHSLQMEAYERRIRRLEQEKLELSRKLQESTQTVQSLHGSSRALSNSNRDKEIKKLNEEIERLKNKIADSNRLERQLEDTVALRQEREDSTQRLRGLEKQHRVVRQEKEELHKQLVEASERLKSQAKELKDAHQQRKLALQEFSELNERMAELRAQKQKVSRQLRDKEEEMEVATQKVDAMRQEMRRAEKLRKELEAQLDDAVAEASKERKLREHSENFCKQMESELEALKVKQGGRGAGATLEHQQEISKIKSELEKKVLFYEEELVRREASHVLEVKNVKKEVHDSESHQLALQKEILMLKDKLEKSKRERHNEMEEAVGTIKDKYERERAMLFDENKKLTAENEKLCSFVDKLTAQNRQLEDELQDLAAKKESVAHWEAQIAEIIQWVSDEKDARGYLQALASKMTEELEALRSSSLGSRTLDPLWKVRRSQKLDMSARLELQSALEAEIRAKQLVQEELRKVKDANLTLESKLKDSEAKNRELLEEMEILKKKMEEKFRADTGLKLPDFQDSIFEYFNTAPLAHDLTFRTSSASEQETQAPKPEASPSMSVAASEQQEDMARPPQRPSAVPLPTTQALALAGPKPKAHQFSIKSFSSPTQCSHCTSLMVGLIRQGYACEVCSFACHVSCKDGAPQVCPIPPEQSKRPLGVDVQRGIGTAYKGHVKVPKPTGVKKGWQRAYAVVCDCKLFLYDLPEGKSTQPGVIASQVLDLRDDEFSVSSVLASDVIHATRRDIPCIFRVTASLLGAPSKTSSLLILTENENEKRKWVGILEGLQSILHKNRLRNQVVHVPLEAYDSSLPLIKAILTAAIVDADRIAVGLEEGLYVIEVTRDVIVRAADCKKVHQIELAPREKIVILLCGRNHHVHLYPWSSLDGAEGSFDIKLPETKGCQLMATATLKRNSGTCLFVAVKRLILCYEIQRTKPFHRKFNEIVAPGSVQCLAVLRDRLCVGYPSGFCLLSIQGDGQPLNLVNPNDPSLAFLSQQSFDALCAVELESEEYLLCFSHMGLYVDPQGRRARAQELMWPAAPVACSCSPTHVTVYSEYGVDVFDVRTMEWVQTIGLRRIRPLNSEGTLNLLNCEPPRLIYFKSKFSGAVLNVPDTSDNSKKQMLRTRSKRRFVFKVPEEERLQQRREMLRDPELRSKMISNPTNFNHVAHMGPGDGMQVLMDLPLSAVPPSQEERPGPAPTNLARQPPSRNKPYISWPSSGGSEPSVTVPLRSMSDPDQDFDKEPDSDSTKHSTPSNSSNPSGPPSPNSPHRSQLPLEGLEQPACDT
Chain of Serine/threonine-protein kinase N2 (Q16513 whole entry): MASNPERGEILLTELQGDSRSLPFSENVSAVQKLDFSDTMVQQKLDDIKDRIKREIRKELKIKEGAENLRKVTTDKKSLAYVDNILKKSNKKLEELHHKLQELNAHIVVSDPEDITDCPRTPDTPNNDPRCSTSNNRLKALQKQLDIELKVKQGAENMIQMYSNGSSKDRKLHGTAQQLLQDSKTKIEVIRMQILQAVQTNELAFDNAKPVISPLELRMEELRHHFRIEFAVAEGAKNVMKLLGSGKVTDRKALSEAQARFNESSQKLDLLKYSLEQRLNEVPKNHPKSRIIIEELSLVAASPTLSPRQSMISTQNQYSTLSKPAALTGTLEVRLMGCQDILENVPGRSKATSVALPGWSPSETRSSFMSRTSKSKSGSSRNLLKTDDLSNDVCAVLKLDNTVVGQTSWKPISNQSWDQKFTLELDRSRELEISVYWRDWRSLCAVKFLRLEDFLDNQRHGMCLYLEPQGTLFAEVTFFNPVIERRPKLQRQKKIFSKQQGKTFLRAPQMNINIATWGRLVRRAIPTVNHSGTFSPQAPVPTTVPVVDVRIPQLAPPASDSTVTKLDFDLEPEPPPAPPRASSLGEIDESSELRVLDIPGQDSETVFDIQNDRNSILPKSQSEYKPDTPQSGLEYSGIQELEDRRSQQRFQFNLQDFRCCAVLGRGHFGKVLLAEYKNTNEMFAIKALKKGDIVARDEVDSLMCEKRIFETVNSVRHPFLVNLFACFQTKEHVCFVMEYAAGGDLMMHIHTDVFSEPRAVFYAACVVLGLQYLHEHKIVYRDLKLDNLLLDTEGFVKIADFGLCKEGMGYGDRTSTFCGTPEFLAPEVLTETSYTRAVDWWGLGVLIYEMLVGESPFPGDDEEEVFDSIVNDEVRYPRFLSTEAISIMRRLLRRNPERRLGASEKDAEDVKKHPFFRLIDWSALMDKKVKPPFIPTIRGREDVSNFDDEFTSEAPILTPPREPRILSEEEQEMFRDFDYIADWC
Description for in vitro: Ratio of permeability from basolateral to apical side over apical to basolateral side in human Caco-2 cells

Broadly, the half-life is the time needed for the level to fall by half in the phase considered. One may read the IC50 as the midpoint of a concentration-inhibition curve. Higher therefore signals weaker potency. For orientation: solubility means the dissolved amount per volume that the medium holds. The low end stands for little dissolved substance, the high end for much dissolved substance. In general, efflux ratio refers to the permeability from basolateral to apical divided by that in the opposite direction, in the common usage. As to `COc1ccc(C(=O)NCc2cccc(C(=O)NCCc3ccncc3)c2)cc1OC`, the Papp A→B in data set [1] is 0.5 ×10⁻⁶ cm/s. In data set [2], the Papp B→A stood at 29.1 ×10⁻⁶ cm/s. The half-life in data set [3] is 10 min. Further, the IC50 against Cytochrome P450 1A2 [4] is above 30 µM; on Cytochrome P450 2C9 [5], 16 µM; against Cytochrome P450 2C19 it was above 30 µM; on Cytochrome P450 2D6 [6], above 30 µM; in the data set filed under Rattus norvegicus, 1.9 µM; in data set [7], 4.3 µM. Besides, the figures for the IC50 (against Cytochrome P450 3A4 [10]; against Cytochrome P450 3A4 [11]; in data set [12]) were 4 µM, 21 µM and 2.3 µM, respectively. Besides, the solubility was above 100 µg/mL in [8] and 63 µg/mL (≈ 150 µM) in data set [9]. Further, the efflux ratio in the data set “in vitro” was found to be 58.

For `COc1ccc(C(=O)NCc2cccc(C(=O)Nc3ccc(CN(C)C)cc3)c2)cc1Cl`, the Papp A→B in data set [1] is 7.7 ×10⁻⁶ cm/s. In [2], the Papp B→A amounted to 45.3 ×10⁻⁶ cm/s. In addition, the IC50 in [13] was above 5 µM; in the data set listed under Rattus norvegicus it was 1.6 µM; against Cytochrome P450 1A2 [15], above 30 µM; on Cytochrome P450 2C9 [16] it was above 30 µM; at Cytochrome P450 2D6 [17], above 30 µM; at Cytochrome P450 3A4 [18], above 30 µM. Besides, the half-maximal inhibitory concentration (IC50) in data set [19] and in data set [20] was above 5 µM in each case. Moreover, the Papp in data set [14] amounted to 24 ×10⁻⁶ cm/s. This compound also showed a solubility in [9] above 96 µg/mL.

For `COc1ccc(C(=O)NCc2cccc(NC(=O)CCC3CCCNC3)c2)cc1OC` (centres undefined), the 50% inhibitory concentration (IC50) was above 5 µM in data set [13]; above 5 µM in data set [19]; 0.073 µM in data set [12]; 0.19 µM in the data set with ROCK1 (Homo sapiens); above 5 µM in data set [20].

As to `N#Cc1ccc(NC(=O)NCc2cccc(C(=O)NCCC3CCCNC3)c2)cc1` (centres undefined), the half-inhibitory concentration (IC50) is above 5 µM in [13]; 1.7 µM in [19]; 0.018 µM in data set [12]; 0.031 µM with ROCK1 (Homo sapiens); above 5 µM in data set [20].

For the compound `COc1ccc(C(=O)NCc2cccc(C(=O)Nc3ccc(CN(C)C)cc3)c2)cc1C`, the Papp A→B in [1] was 7.9 ×10⁻⁶ cm/s. Further, the Papp B→A in data set [2] was 30.8 ×10⁻⁶ cm/s. Moreover, in data set [14], the Papp was 21 ×10⁻⁶ cm/s. The half-inhibitory concentration (IC50) in [21] was 0.66 µM; against Cytochrome P450 1A2 [15] it was above 30 µM; against Cytochrome P450 2C9 [16], 12.5 µM; against Cytochrome P450 2D6 [17], above 30 µM; at Cytochrome P450 3A4 [18] it was 13.5 µM. Further, the solubility in [9] is above 88 µg/mL.

As for `COc1ccc(C(=O)NCc2cccc(C(=O)Nc3ccc(CO)cc3)c2)cc1OC`, the Papp A→B in data set [1] is 0.6 ×10⁻⁶ cm/s. Further, in [2], the Papp B→A is 16.1 ×10⁻⁶ cm/s. The half-life in [3] was determined as 41 min. Also, the Papp in data set [14] came to 10 ×10⁻⁶ cm/s. In addition, the solubility in data set [9] worked out at 48 µg/mL (≈ 114 µM). The IC50 was above 30 µM against Cytochrome P450 1A2 [15]; above 30 µM at Cytochrome P450 2C9 [16]; above 30 µM on Cytochrome P450 2D6 [17]; above 30 µM against Cytochrome P450 3A4 [18]; 0.87 µM in data set [12].

In general, bioavailability refers to dose-corrected exposure relative to a reference, in per cent. Higher therefore signals much systemic uptake. For `COc1ccc(C(=O)NCc2cccc(C(=O)Nc3ccc(CN(C)C)cc3)c2)cc1OC`, the permeability result with Caco-2 is on record as “BLD”. Moreover, in [2], the Papp B→A came out at 14.6 ×10⁻⁶ cm/s. The half-life in [3] was found to be 66 min. For the same compound, the IC50 on Cytochrome P450 1A2 [4] is above 30 µM; against Cytochrome P450 2C9 [5], above 30 µM; against Cytochrome P450 2C19, above 30 µM; on Cytochrome P450 2D6 [6] it was above 30 µM; in [13], above 5 µM; in the data set listed under Rattus norvegicus, 6 µM. The IC50 in data set [21] is 0.23 µM; against Cytochrome P450 3A4 [10] it was 8.5 µM; against Cytochrome P450 3A4 [11], above 30 µM; in [19], above 5 µM; in data set [12], 0.069 µM; in [20], above 5 µM. The compound further showed a bioavailability in data set [22] of 1.8%. In addition, in data set [14], the Papp is 10 ×10⁻⁶ cm/s. The same compound registered a solubility in data set [9] above 100 µg/mL.
